In PMC5516028, “Molecular tools for GABAA receptors: High affinity ligands for β1-containing subtypes” (Scientific Reports, 2017):

Assays:
Assay type in all cases: cell-based
α3β3 GABAA receptors = molecular target: T1, α3β3 GABAA receptors (Rattus norvegicus, UniProt P20236+P63079); assay: Two electrode voltage clamp in Xenopus laevis oocytes, α3β3
T1 construct: expressed in transfected cells; host or cells: Xenopus laevis oocytes, mRNA injected
Text: (§1) cDNA’s of rat GABAA receptor subunits α1, α4, β1, β2, β3 and γ2S were cloned as described. cDNAs of the rat subunits α2, α3 and α5 were gifts from P. Malherbe, that of α6 and γ1 were gifts of P. Seeburg and that of δ was a gift of C. Czajkowski. The mutants were constructed using the Q5 Site-Directed Mutagenesis Kit (New England Biolabs) following manufacturer’s instruction. We used the wild-type rat β3-pCI vector as template and the primers […] and […] resulting in a substitution of amino acid N41 (AAC) to R (AGG). We used the wild-type rat β1-pCI vector as template and the primers […] and […] resulting in a substitution of amino acid R41 (CGG) to N (AAC). The mutated subunits were confirmed by sequencing.
(§2) In vitro transcription of mRNA was based on the cDNA expression vectors encoding for rat GABAA receptor subunits α1–6, β1-3, γ1,2, δ and the two β mutants (β1R41N and β3N41R)[40]. After linearizing the cDNA vectors with appropriate restriction endonucleases, the cDNA was purified and concentrated with the DNA Clean and Contentrator ^TM Kit (Zymoresearch, Catalog No. D4005). Capped transcripts of the purified cDNA were produced using the mMESSAGE mMACHINE® T7 transcription kit (Ambion, TX, USA) and polyadenylated using the Ambion PolyA tailing kit (Ambion). After transcription and polyadenylation the RNA was purified with the MEGAclear ^TM Kit (Ambion, Catalog No. AM1908). The final RNA concentration was measured on NanoDrop® ND-1000 and finally diluted and stored in diethylpyrocarbonate-treated water at −80 °C. For the microinjection, the RNA of αβ receptor combinations was mixed at 1:1 ratio (which leads to αβ receptors that consist of predominantly 3 beta and 2 alpha subunits[27]), for αkβlγm (k = 1–3, l = 1, 3, m = 1, 2) receptors at 1:1:5 ratio, for αkβ3γ2 (k = 4–6) and αkβlδ (k = 1, 4 and 6, l = 1, 3) receptor combinations at 3:1:5 ratio.
(§3) Mature female Xenopus laevis (Nasco, WI) were anesthetized in a bath of ice-cold 0.17% Tricain (Ethyl-m-aminobenzoate, Sigma, MO) before decapitation in full accordance with all rules of the Austrian animal protection law (see http://www.ris.bka.gv.at/Dokumente/BgblAuth/BGBLA_2012_I_114/BGBLA_2012_I_114.pdf) and the Austrian animal experiment by-laws (see https://www.ris.bka.gv.at/Dokumente/BgblAuth/BGBLA_2012_II_522/BGBLA_2012_II_522.pdf) which implement the European Directive 2010/63/EU (see http://eur-lex.europa.eu/LexUriServ/LexUriServ.do?uri=OJ:L:2010:276:0033:0079:en:PDF) into the Austrian law (all information accessed on July 27, 2016). The frog’s ovaries were transferred to ND96 medium (96 mM NaCl, 2 mM KCl, 1 mM MgCl2, 5 mM HEPES; pH 7.5). Stage 5–6 oocytes with the follicle cell layer around them were roughly dissected with forceps into packages of 10–15 cells and washed in Ca^2+-free ND96 medium. Cells were then digested with collagenase (type IA, Sigma, NO, 1 mg/mL ND96) at 18 °C shaking at 30 rpm for 30–60 minutes and gently defolliculated with the aid of a glass pipette with appropriate tip diameter and a platinum loop. Defolliculated cells were stored at 18 °C for at least 6 hours in ND96 solution containing penicillin G (10000 IU/100 mL) and streptomycin (10 mg/100 mL) in order to preselect and exclude damaged cells from further treatment. Healthy defolliculated oocytes were injected with an aqueous solution of mRNA. A total of 4.5 ng of mRNA per oocyte was injected with a Nanoject II (Drummond). After injection of mRNA, oocytes were incubated at 18 °C (ND96 + antibiotic) for 2–3 days for αβ receptors and for 3–4 days for αβγ or αβδ receptors before recording. When cells were measured at later time points, oocytes were stored at +4 °C instead of 18 °C.
(§4) For electrophysiological recordings, oocytes were placed on a nylon-grid in a bath of Ca^2+-containing NDE solution medium [96 mM NaCl, 5 mM HEPES-NaOH (pH 7.5), 2 mM KCl, 1 mM MgCl2, 1.8 mM CaCl2].

α3β3γ2 GABAA receptors = molecular target: T2, α3β3γ2 GABAA receptors (Rattus norvegicus, UniProt P20236+P63079); assay: Two electrode voltage clamp in Xenopus laevis oocytes, α3β3γ2
T2 construct: expressed in transfected cells; host or cells: Xenopus laevis oocytes, mRNA injected
T2 sequence (P20236 29-493): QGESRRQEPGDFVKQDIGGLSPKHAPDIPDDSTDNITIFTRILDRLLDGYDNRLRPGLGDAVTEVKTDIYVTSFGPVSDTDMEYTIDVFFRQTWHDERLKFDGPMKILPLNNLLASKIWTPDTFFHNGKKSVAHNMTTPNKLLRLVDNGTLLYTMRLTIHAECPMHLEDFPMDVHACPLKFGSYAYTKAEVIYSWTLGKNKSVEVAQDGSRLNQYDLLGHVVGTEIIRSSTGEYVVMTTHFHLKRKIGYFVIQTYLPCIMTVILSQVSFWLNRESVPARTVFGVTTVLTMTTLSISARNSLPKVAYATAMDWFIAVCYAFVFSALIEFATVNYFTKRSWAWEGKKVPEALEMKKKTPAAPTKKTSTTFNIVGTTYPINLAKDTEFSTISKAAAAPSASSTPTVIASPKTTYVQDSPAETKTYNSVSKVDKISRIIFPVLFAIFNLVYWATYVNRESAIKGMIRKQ
T2 sequence (P63079 26-473): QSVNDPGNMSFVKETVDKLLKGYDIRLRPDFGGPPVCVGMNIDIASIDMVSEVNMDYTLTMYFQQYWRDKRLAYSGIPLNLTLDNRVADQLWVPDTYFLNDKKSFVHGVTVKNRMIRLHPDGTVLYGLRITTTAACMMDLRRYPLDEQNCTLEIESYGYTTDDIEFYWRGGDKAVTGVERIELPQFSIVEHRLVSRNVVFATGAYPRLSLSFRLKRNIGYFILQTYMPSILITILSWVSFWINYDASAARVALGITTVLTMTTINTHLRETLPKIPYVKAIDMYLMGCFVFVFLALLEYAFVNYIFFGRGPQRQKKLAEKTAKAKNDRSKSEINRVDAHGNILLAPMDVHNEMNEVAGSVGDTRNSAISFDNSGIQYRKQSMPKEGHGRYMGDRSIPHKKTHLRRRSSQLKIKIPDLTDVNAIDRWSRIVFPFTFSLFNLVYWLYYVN
T2 sequence (P18508 39-466 partner): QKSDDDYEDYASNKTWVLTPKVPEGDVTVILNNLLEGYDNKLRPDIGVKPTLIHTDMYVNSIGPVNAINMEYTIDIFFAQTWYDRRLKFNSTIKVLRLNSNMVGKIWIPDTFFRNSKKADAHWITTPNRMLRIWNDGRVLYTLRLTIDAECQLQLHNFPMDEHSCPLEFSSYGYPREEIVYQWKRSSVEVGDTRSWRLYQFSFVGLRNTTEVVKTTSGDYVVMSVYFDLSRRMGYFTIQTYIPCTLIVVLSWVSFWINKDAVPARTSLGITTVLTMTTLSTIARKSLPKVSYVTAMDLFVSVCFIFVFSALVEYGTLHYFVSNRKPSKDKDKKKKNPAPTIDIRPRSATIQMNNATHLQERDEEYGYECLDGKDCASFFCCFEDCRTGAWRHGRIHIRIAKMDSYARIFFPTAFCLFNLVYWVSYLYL
Text: as §1, §2, §3, §4

α5β3 GABAA receptors = molecular target: T3, α5β3 GABAA receptors (Rattus norvegicus, UniProt P19969+P63079); assay: Two electrode voltage clamp in Xenopus laevis oocytes, α5β3
T3 construct: expressed in transfected cells; host or cells: Xenopus laevis oocytes, mRNA injected
T3 sequence (P19969 32-464 limits assumed): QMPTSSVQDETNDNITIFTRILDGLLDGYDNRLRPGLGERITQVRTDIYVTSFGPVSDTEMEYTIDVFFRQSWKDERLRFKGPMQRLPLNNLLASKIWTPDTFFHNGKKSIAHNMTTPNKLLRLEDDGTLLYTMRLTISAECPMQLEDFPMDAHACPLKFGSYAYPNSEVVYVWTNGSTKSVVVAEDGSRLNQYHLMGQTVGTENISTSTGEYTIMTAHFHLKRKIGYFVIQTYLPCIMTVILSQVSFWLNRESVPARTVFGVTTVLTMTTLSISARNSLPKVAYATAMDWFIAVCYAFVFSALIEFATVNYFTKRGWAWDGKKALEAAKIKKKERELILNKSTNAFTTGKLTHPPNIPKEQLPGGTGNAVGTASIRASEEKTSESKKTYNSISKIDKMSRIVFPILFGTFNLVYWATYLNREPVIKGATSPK
T3 sequence (P63079 26-473): as the sequence (P63079 26-473) above
Text: as §1, §2, §3, §4

α1β3γ2 GABAA receptors = molecular target: T4, α1β3γ2 GABAA receptors (Rattus norvegicus, UniProt P62813+P63079); assay: Two electrode voltage clamp in Xenopus laevis oocytes, α1β3γ2
T4 construct: expressed in transfected cells; host or cells: Xenopus laevis oocytes, mRNA injected
T4 sequence (P62813 28-455): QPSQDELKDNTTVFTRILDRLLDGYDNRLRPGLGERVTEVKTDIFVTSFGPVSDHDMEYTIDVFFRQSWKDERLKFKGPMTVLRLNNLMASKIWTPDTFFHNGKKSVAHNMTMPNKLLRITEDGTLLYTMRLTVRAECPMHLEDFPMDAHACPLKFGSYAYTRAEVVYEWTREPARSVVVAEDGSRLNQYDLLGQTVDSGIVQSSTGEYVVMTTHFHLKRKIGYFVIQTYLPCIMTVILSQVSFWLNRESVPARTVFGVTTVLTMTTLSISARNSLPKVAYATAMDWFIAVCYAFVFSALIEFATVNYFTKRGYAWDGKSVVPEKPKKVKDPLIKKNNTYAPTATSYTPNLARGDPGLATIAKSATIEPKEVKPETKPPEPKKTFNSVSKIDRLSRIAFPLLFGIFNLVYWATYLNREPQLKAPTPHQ
T4 sequence (P63079 26-473): as the sequence (P63079 26-473) above
T4 sequence (P18508 39-466 partner): as the sequence (P18508 39-466 partner) above
Text: as §1, §2, §3, §4

α6β3γ2 GABAA receptors = molecular target: T5, α6β3γ2 GABAA receptors (Rattus norvegicus, UniProt P30191+P63079); assay: Two electrode voltage clamp in Xenopus laevis oocytes, α6β3γ2
T5 construct: expressed in transfected cells; host or cells: Xenopus laevis oocytes, mRNA injected
T5 sequence (P30191 20-453): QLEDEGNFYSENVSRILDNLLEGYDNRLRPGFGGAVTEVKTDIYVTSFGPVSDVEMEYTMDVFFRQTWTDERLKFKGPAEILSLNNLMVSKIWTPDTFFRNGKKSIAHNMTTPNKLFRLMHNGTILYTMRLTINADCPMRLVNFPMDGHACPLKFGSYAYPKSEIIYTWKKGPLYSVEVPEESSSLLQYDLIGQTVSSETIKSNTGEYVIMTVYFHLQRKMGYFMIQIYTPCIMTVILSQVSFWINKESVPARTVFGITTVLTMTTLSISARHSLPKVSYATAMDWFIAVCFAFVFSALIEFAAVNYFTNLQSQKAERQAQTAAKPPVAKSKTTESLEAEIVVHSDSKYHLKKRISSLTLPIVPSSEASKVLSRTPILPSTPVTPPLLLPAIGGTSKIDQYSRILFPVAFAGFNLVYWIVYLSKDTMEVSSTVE
T5 sequence (P63079 26-473): as the sequence (P63079 26-473) above
T5 sequence (P18508 39-466 partner): as the sequence (P18508 39-466 partner) above
Text: as §1, §2, §3, §4

α5β3γ2 GABAA receptors = molecular target: T6, α5β3γ2 GABAA receptors (Rattus norvegicus, UniProt P19969+P63079); assay: Two electrode voltage clamp in Xenopus laevis oocytes, α5β3γ2
T6 construct: expressed in transfected cells; host or cells: Xenopus laevis oocytes, mRNA injected
T6 sequence (P19969 32-464 limits assumed): as the sequence (P19969 32-464 limits assumed) above
T6 sequence (P63079 26-473): as the sequence (P63079 26-473) above
T6 sequence (P18508 39-466 partner): as the sequence (P18508 39-466 partner) above
Text: as §1, §2, §3, §4

α2β3 GABAA receptors = molecular target: T7, α2β3 GABAA receptors (Rattus norvegicus, UniProt P23576+P63079); assay: Two electrode voltage clamp in Xenopus laevis oocytes, α2β3; details: α2β3
T7 construct: expressed in transfected cells; host or cells: Xenopus laevis oocytes, mRNA injected
T7 sequence (P23576 29-451): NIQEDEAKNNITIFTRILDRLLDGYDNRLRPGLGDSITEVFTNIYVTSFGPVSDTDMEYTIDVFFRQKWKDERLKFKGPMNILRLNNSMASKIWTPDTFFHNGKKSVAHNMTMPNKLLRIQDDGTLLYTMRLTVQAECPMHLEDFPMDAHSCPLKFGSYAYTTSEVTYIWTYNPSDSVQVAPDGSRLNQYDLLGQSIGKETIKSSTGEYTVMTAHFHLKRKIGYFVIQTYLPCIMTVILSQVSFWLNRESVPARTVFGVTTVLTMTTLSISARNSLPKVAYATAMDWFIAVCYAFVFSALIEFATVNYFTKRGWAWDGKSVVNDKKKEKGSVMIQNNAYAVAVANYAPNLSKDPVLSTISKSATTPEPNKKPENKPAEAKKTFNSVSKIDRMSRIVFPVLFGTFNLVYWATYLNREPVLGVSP
T7 sequence (P63079 26-473): as the sequence (P63079 26-473) above
Text: as §1, §2, §3, §4

[1] = read-out: efficacy, % of control current (GABA EC3-5 = 100%), 1 nM
[2] = read-out: efficacy, % of control current (GABA EC3-5 = 100%), 100 nM
[3] = read-out: efficacy, % of control current (GABA EC3-5 = 100%), 10 µM
[4] = read-out: efficacy, % of control current (GABA EC3-5 = 100%), 10 nM
[5] = read-out: efficacy, % of control current (GABA EC3-5 = 100%), 300 nM
[6] = read-out: efficacy, % of control current (GABA EC3-5 = 100%), 1 µM

T1 sequence (P20236 29-493): as the sequence (P20236 29-493) above
T1 sequence (P63079 26-473): as the sequence (P63079 26-473) above

Cc1ccc(-n2nc3c4cc(Cl)ccc4[nH]cc-3c2=O)cc1 [Compound 2, 8-Chloro-2-(4-methylphenyl)-2H-pyrazolo[4,3-c]quinolin-3(5H)-one]
EC50 (α3β3 GABAA receptors): 2.1 µM
activity at 0.001 µM (α3β3 GABAA receptors; read-out: efficacy, % of control current (GABA EC3-5 = 100%), α3β3, 1 nM): 101.2 ± 0.8%
activity at 0.01 µM (α3β3 GABAA receptors; read-out: efficacy, % of control current (GABA EC3-5 = 100%), α3β3, 10 nM): 102 ± 1.2%
activity at 0.1 µM (α3β3 GABAA receptors; read-out: efficacy, % of control current (GABA EC3-5 = 100%), α3β3, 100 nM): 106 ± 1.3%
activity at 3 µM (α3β3 GABAA receptors; read-out: efficacy, % of control current (GABA EC3-5 = 100%), α3β3, 3 µM): 226 ± 10.7%
activity at 10 µM (α3β3 GABAA receptors; read-out: efficacy, % of control current (GABA EC3-5 = 100%), α3β3, 10 µM): 285 ± 7%
activity at 30 µM (α3β3 GABAA receptors; read-out: efficacy, % of control current (GABA EC3-5 = 100%), α3β3, 30 µM): 288 ± 8.7%
EC50 (α3β3γ2 GABAA receptors; co-applied with GABA EC3-5): 7.2 µM
activity at 0.001 µM (α3β3γ2 GABAA receptors; [1]): 100%
activity at 0.1 µM (α3β3γ2 GABAA receptors; [2]): 109 ± 1%
activity at 10 µM (α3β3γ2 GABAA receptors; [3]): 305 ± 71%
EC50 (α5β3 GABAA receptors): 6.1 µM
activity at 0.001 µM (α5β3 GABAA receptors; read-out: efficacy, % of control current (GABA EC3-5 = 100%), α5β3, 1 nM): 97.3 ± 1.2%
activity at 0.1 µM (α5β3 GABAA receptors; read-out: efficacy, % of control current (GABA EC3-5 = 100%), α5β3, 100 nM): 110 ± 3.6%
activity at 0.3 µM (α5β3 GABAA receptors; read-out: efficacy, % of control current (GABA EC3-5 = 100%), α5β3, 300 nM): 108 ± 6.3%
activity at 1 µM (α5β3 GABAA receptors; read-out: efficacy, % of control current (GABA EC3-5 = 100%), α5β3, 1 µM): 132 ± 3.8%
activity at 3 µM (α5β3 GABAA receptors; read-out: efficacy, % of control current (GABA EC3-5 = 100%), α5β3, 3 µM): 190 ± 22.9%
activity at 30 µM (α5β3 GABAA receptors; read-out: efficacy, % of control current (GABA EC3-5 = 100%), α5β3, 30 µM): 232 ± 21.5%
EC50 (α1β3γ2 GABAA receptors; co-applied with GABA EC3-5, read-out: EC50): 4.4 µM
activity at 0.001 µM (α1β3γ2 GABAA receptors; [1]): 100%
activity at 0.01 µM (α1β3γ2 GABAA receptors; [4]): 108 ± 4%
activity at 0.1 µM (α1β3γ2 GABAA receptors; [2]): 108 ± 4%
activity at 0.3 µM (α1β3γ2 GABAA receptors; [5]): 128 ± 5.6%
activity at 1 µM (α1β3γ2 GABAA receptors; [6]): 156 ± 19%
activity at 10 µM (α1β3γ2 GABAA receptors; [3]): 423 ± 106%
activity at 30 µM (α1β3γ2 GABAA receptors; read-out: efficacy, % of control current (GABA EC3-5 = 100%), 30 µM): 534 ± 136%
Emax (α1β3γ2 GABAA receptors; read-out: maximum efficacy / modulatory effects up to): ~600%
EC50 (α6β3γ2 GABAA receptors; co-applied with GABA EC3-5): > 5 µM
activity at 0.001 µM (α6β3γ2 GABAA receptors; [1]): 106 ± 6.6%
activity at 0.01 µM (α6β3γ2 GABAA receptors; [4]): 114 ± 8.8%
activity at 0.1 µM (α6β3γ2 GABAA receptors; [2]): 152 ± 12%
activity at 1 µM (α6β3γ2 GABAA receptors; [6]): 297 ± 16.2%
activity at 10 µM (α6β3γ2 GABAA receptors; [3]): > 1000%
EC50 (α5β3γ2 GABAA receptors): 6.4 µM
activity at 0.001 µM (α5β3γ2 GABAA receptors; read-out: efficacy, % of control current (GABA EC3-5 = 100%), α5β3γ2, 1 nM): 93.3 ± 5.7%
activity at 0.01 µM (α5β3γ2 GABAA receptors; read-out: efficacy, % of control current (GABA EC3-5 = 100%), α5β3γ2, 10 nM): 95.1 ± 6.9%
activity at 0.1 µM (α5β3γ2 GABAA receptors; read-out: efficacy, % of control current (GABA EC3-5 = 100%), α5β3γ2, 100 nM): 97.7 ± 11.5%
activity at 0.3 µM (α5β3γ2 GABAA receptors; read-out: efficacy, % of control current (GABA EC3-5 = 100%), α5β3γ2, 300 nM): 103 ± 14.9%
activity at 1 µM (α5β3γ2 GABAA receptors; read-out: efficacy, % of control current (GABA EC3-5 = 100%), α5β3γ2, 1 µM): 123 ± 16.5%
activity at 10 µM (α5β3γ2 GABAA receptors; read-out: efficacy, % of control current (GABA EC3-5 = 100%), α5β3γ2, 10 µM): 220 ± 31.1%
activity at 30 µM (α5β3γ2 GABAA receptors; read-out: efficacy, % of control current (GABA EC3-5 = 100%), α5β3γ2, 30 µM): 266 ± 41%
Emax (α5β3γ2 GABAA receptors; α5-containing subtype (α5β3γ2), read-out: maximum efficacy): ~200%
activity at 0.001 µM (α2β3 GABAA receptors; [1]): 100%
activity at 0.01 µM (α2β3 GABAA receptors; [4]): 100%
activity at 0.3 µM (α2β3 GABAA receptors; [5]): 123 ± 4.9%
activity at 1 µM (α2β3 GABAA receptors; [6]): 127 ± 9.8%
activity at 3 µM (α2β3 GABAA receptors; read-out: efficacy, % of control current (GABA EC3-5 = 100%), 3 µM): 254 ± 4%
EC50 (α2β3 GABAA receptors; log of EC50, sign as printed, read-out: LogEC50 (converted)): 15.8 µM
